Data on two compounds can be found in paper PMC11444200, “In Vitro Evaluation of Antipseudomonal Activity and Safety Profile of Peptidomimetic Furin Inhibitors” (Biomedicines, 2024).

In one series the test system is Pseudomonas aeruginosa. Put plainly: viability (CCK-8) of MDCK cells challenged with Pseudomonas aeruginosa. The settings on record: P. aeruginosa 10^6 CFU/mL, 5 h, inhibitor 2 h prior and during, tested 0.5-100 µM. It is filed as cell-based. How it is done: MDCK NBL-2 cells were obtained from Cytion (formerly: CLS Cell Lines Service, Eppenheim, Germany). Cells were grown in T-75 cell culture flasks, using Dulbecco’s Modified Eagle’s Medium (DMEM, Capricorn Scientific, Ebsdorfergrund, Germany) supplemented with 5% foetal bovine serum (FBS, Capricorn) and antibiotic–antimycotic solution (penicillin, streptomycin, amphotericin B; Merck, Darmstadt, Germany). The cells were subcultured and seeded in wells of 96-well microtiter plates one day prior to the experiments. After 24 h, near 100% confluence was recorded in the wells. The growth and incubation of MDCK cells were carried out in a humidified incubator at 37 °C and in the presence of 5% CO2. […] Three times single colonies from ten different blood agar plates were dissolved in 5 mL of distilled water, and colony-forming units (CFU) were counted after their serial dilution and overnight incubation on non-selective blood agar at 37 °C. […] The count of Pseudomonas aeruginosa from inoculating vials was also assessed and was in good accordance with our count prediction. […] Following the addition of the final reagent (100 µL fresh Williams’ Medium E) and a 2 h incubation period, the absorbance was measured at 450 nm using a SpectraMax iD3 (Molecular Devices, San José, CA, USA).

The target of a further series is CYP3A4 (Homo sapiens, UniProt P08684). Put plainly: microsomal CYP3A4 activity assay (human hepatic microsomes). It is filed as in vitro ADME. Further details: human hepatic microsomes (Gibco, Biocenter, Szeged, Hungary); tissue Gibco (Biocenter, Szeged, Hungary); host or cells: human liver microsomes. The settings on record: for microsomal CYP3A4 function: 25, 50 and 100 µM; for inhibition at 100 µM: human, read-out: CYP3A4 inhibitory activities. How it is done:
To investigate the effects of inhibitor MI-2415 on CYP3A4 activities, a P450-Glo CYP450 assay (Promega, Madison, WI, USA) was used. […] This luminescent method involves adding a cell-permeable Luciferin-IPA at 3 µM, which was used in 300 µL phenol-red free Williams’ Medium E in each well in the CYP3A4 assay with an incubation time of 1 h. The luminescence activity of the product in the presence of the luciferin detection reagent was proportional to the CYP activity. For the microsomal CYP3A4 assay of inhibitors MI-1851 and MI-2415 at 25, 50, and 100 µM (n = 3), BioVision CYP assays (BioVision, Inc., Kampenhout, Belgium) were used according to the manufacturer’s instructions. The protein content of human hepatic microsomes (Gibco, Biocenter, Szeged, Hungary) was determined by the bicinchoninic acid protein assay kit (Pierce BCA kit, Thermo Fisher Scientific, Waltham, MA, USA) and a 100 µg/well protein was used in each study. […] A Victor X2 2030 fluorescence spectrometer (Perkin Elmer, Waltham, MA, USA) was used to detect the fluorescence intensities of the microsomal CYP3A4 function at wavelengths of λex/em = 535/587 nm and it was also applied to detect the luminescence signals of the cell-based CYP3A4 activity assay.

The subject of series [1] is primary human hepatocytes (PHH). Further details: method as in PMID 35594709. The settings on record: 100 µM; cited from earlier work.
Series [2] addresses T1, Human serum albumin (HSA) (Homo sapiens, UniProt P02768).
T1 construct: purchased Merck (Darmstadt, Germany) A1653
Put plainly: fluorescence quenching of human serum albumin. The settings on record: HSA 2 μM, ligand 1-10 μM, PBS pH 7.4, λex 295 nm. Format: binding. How it is done:
Human serum albumin (HSA) (product code: A1653) and α1-acid glycoprotein (AGP) (product code: G9885) were purchased from Merck (Darmstadt, Germany) and used as received. Fluorescence emission spectra were recorded using a Hitachi F-4500 fluorometer (Tokyo, Japan), while absorption spectra were collected by employing a Hitachi U-3900 UV–Vis spectrophotometer (Tokyo, Japan). Before the evaluation of fluorescence data, the inner-filter effects of MI-1851 and MI-2415 were corrected based on the following equation [23, 24]:(1) Icor=Iobs×e^(Aex+Aem)/2 where Icor and Iobs are the corrected and observed emission intensities, respectively; and Aex and Aem are the absorbance of the MI compounds tested at the excitation and emission wavelengths used, respectively.
To examine the potential interaction of inhibitor MI-2415 with HSA, increasing levels of the ligand (final concentrations: 0, 1, 2, 3, 4, 7, and 10 μM) were added to a standard amount of the protein (2 μM) in PBS (pH 7.4), and then the emission spectra were recorded (λex = 295 nm, λem = 340 nm). Furthermore, the quenching effects of inhibitors MI-1851 and MI-2415 (both 0, 0.25, 0.5, 1, 1.5, 2, and 2.5 μM) were also tested on the emission signal of AGP (2 μM) in PBS (λex = 285 nm, λem = 337 nm).

Chain of CYP3A4 (P08684 whole entry): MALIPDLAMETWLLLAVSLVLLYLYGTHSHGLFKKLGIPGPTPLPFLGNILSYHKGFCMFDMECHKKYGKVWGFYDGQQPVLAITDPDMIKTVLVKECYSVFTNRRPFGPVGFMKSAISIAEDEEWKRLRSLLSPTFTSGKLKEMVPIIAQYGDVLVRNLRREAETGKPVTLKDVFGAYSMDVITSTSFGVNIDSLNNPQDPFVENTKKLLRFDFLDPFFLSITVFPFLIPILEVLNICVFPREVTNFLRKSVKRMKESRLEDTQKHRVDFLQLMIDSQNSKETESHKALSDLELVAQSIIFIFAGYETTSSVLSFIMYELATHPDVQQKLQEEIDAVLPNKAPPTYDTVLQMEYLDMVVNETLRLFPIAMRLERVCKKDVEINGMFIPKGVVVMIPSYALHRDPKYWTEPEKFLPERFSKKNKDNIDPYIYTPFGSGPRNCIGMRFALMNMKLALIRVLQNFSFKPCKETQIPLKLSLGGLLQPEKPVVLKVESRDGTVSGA
T1 sequence (P02768 25-609): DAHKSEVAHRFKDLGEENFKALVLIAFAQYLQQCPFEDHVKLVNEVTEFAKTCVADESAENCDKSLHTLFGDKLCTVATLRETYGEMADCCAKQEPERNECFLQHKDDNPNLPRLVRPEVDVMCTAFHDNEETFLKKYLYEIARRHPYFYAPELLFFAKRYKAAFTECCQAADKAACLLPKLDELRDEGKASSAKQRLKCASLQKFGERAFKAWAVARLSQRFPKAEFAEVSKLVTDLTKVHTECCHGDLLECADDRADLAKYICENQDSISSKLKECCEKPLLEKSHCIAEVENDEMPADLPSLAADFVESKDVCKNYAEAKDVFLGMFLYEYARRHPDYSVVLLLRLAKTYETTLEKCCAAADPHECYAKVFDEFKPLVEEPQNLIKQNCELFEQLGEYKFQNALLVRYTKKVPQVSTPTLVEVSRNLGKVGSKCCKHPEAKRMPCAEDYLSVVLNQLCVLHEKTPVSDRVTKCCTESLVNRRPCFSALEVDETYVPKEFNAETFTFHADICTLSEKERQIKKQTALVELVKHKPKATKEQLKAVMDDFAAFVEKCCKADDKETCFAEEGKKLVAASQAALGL

In the case of `CC(C)(C)[C@H](NC(=O)[C@H](CCONC(=N)N)NC(=O)Cc1ccc(CNC(=N)N)cc1)C(=O)N[C@@H](CCONC(=N)N)C(=O)NCc1ccc(C(=N)N)cc1` [MI-1851], the “concentration with antipseudomonal effect (preserved MDCK cell viability)” value in the series on Pseudomonas aeruginosa was 0.5 µM. At CYP3A4, the “microsomal CYP3A4 function” value is on record as “suppressed CYP3A4 function in a concentration-dependent manner” and the inhibition at 100 µM is 30 to 50%. Moreover, in series [1], the “extracellular hydrogen peroxide production in PHHs” value is given as “lacking any significant effect”.
`CC(C)(C)[C@H](NC(=O)[C@H](CCONC(=N)N)NC(=O)Cc1ccc(CNC(=N)N)cc1)C(=O)N[C@@H](CCONC(=N)N)C(=O)NCc1ccc2c(c1)CN=C2N` [MI-2415]: the “concentration with antipseudomonal effect (preserved MDCK cell viability)” value in the series on Pseudomonas aeruginosa is on record as at least 25 µM. At CYP3A4, the “concentration from which CYP3A4 inhibition is significant” value is 50 µM, the “microsomal CYP3A4 function” value was “reduce CYP3A4 activity but only from 50 µM” and the inhibition at 100 µM was in the range of 30 to 50%. In series [2], the “effect on emission intensity of HSA at 340 nm” value is “did not influence the emission intensity of HSA”.
